Each structure is given as a SMILES string.

This test addresses T1, Myriococcum thermophilum cellobiose dehydrogenase (CDH, SEQ ID NO: 1) variant N313S (Thermothelomyces myriococcoides, UniProt A9XK88, N313S).
T1 sequence (A9XK88 22-828 N313S): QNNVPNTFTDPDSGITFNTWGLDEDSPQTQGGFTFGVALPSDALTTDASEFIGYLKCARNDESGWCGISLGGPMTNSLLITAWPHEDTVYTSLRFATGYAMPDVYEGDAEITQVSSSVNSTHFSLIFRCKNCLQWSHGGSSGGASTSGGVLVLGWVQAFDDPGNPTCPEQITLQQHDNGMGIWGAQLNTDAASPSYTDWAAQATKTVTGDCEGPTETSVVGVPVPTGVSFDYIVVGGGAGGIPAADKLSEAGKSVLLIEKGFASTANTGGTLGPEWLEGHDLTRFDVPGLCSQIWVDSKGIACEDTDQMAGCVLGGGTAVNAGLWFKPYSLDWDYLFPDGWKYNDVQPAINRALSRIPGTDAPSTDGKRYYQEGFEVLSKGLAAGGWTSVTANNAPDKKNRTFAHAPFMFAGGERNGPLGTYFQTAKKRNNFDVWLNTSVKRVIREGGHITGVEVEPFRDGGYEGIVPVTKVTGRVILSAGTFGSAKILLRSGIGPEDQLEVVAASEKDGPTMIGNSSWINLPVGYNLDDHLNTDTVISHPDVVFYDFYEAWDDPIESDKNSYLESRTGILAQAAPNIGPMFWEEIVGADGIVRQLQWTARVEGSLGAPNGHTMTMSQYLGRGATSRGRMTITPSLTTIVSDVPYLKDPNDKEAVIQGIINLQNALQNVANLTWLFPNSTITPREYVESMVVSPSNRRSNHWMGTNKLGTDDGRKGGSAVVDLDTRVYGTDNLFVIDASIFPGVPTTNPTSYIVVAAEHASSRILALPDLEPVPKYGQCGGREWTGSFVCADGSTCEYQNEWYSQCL
Put plainly: Steady-state kinetics, DCIP assay: M. thermophilum CDH N313S. In kind it is biochemical. Particulars: apparent, pH 4.5, 30° C. As for the experimental part:
Enzyme activity was assayed at 30° C. using either the DCIP (Karapetyan et al., 2005 Journal of Biotechnology 121: 34-48) or cytochrome c (Canevascini et al., 1991, European Journal of Biochemistry 198: 43-52) as electron acceptor. […] Stock solutions of carbohydrates used for kinetic measurements were prepared in the respective buffer and allowed to stand overnight for mutarotation, while stock solutions of electron acceptors were prepared in water and immediately used. The reaction stoichiometry is 1 for the two-electron acceptor DCIP (1 mole of DCIP reduced per mole of carbohydrate oxidized), but 2 for the one-electron acceptor cytochrome c. Kinetic constants were calculated by fitting the observed data to the Henri-Michaelis-Menten equation or to the adapted model for substrate inhibition using nonlinear least-squares regression and the program SigmaPlot (Systat Software, San Jose, Calif., USA). […]
Recombinant wild-type CDH as well as variants were produced in 1 L baffled flasks. […] Increase in activity was monitored using the DCIP and the cytochrome c enzyme assays. […]
The sample was loaded on a 20 mL PHE Sepharose FF column (HR26/20) equilibrated with 50 mM Na-acetate buffer pH 5.5 containing 20% ammonium sulfate. […] Fractions were tested for CDH activity and pooled according to the highest Reinheitszahl (RZ, calculated from the absorbance ratio 420 nm/280 nm). […]

What is called kcat is the number of substrate molecules converted per active site and unit of time at saturation. Broadly, the kcat/KM is the turnover number divided by the Michaelis constant. Regarding `OC[C@H]1OC(O)[C@H](O)[C@@H](O)[C@@H]1O` (some centres unmarked) [Glucose, glucose], the kcat turned out to be 6.8 s⁻¹ and the kcat/KM was 8.8 M⁻¹ s⁻¹.
